Experimental findings from publication PMC4045134, “Discovery of Triterpenoids as Reversible Inhibitors of α/β-hydrolase Domain Containing 12 (ABHD12)” (PLoS ONE, 2014) are described below.

Some results are limits rather than exact numbers.

Assay type in all cases: biochemical
Assay [1] has as its target T1, hABHD12 (Homo sapiens, UniProt Q8N2K0).
T1 construct: expressed in transfected cells; host or cells: HEK293 (transient)
T1 sequence (Q8N2K0 1-398): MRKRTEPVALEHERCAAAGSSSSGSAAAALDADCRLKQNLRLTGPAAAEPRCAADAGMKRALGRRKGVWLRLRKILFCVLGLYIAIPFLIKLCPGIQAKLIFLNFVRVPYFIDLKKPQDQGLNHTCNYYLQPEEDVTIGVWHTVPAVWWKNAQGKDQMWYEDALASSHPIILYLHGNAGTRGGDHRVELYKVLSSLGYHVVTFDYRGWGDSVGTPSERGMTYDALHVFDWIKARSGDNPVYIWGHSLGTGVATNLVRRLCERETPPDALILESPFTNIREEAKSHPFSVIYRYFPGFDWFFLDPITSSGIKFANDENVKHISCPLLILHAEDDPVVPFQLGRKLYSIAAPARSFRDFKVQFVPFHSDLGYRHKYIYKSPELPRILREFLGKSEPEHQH
Nature of the assay: Fluorescent glycerol assay of 1-AG hydrolysis in hABHD12-HEK293 lysates. Particulars: hABHD12-HEK293 lysates.

For a further assay, the target named is T2, hABHD6 (Homo sapiens, UniProt Q9BV23).
T2 construct: expressed in transfected cells; host or cells: HEK293 (transient)
T2 sequence (Q9BV23 1-337): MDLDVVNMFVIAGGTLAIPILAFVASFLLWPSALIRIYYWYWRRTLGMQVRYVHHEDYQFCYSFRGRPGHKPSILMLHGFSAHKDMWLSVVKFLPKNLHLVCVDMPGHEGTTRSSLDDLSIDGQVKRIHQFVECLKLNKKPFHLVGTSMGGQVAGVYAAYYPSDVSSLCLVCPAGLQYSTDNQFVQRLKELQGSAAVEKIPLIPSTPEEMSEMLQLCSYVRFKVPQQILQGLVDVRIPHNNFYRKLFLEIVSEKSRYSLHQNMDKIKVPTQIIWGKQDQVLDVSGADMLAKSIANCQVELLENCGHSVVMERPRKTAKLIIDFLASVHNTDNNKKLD
Nature of the assay: Fluorescent glycerol assay in hABHD6-HEK293 lysates. The following applies: 10 µM; NI = no inhibition at 10 µM; read-out: hABHD6 Remaining activity % control ± s.e.m (n=3). The method, then:
(§1) Glycerol liberated from 1-AG hydrolysis was determined with a sensitive fluorescent assay using lysates of HEK293 cells with transient overexpression of hABHD12, hABHD6 or hMAGL, essentially as previously described. […] Fluorescence (λex 530; λem 590 nm) was monitored using a Tecan Infinite M200 plate reader (Tecan Group Ltd., Männedorf, Switzerland). Inhibitory activities of selected compounds towards FAAH were determined using membranes of hFAAH overexpressing COS-7 cells, essentially as previously described. The final incubation volume (100 µL) contained 1 µg of protein and the substrate concentration was 20 µM (10 nM of ^3H-anandamide having specific activity of 60 Ci/mmol and concentration of 1 mCi/mL).

A further assay has as its target T3, hMAGL (Homo sapiens, UniProt Q99685).
T3 construct: expressed in transfected cells; host or cells: HEK293 (transient)
T3 sequence (Q99685 1-303): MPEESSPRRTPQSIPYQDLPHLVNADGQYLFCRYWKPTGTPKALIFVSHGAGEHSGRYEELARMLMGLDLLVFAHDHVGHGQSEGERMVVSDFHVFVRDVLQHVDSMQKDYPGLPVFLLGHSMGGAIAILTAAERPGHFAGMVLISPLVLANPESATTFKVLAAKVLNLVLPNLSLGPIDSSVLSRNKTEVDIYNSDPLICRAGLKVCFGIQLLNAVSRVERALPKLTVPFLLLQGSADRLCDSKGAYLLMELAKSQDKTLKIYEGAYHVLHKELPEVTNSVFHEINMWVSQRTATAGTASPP
Nature of the assay: Fluorescent glycerol assay in hMAGL-HEK293 lysates. Particulars: 10 µM; read-out: hMAGL Remaining activity % control ± s.e.m (n=3).

A further assay concerns the target T4, hFAAH (Homo sapiens, UniProt O00519).
T4 construct: expressed in transfected cells; host or cells: COS-7
T4 sequence (O00519 1-579): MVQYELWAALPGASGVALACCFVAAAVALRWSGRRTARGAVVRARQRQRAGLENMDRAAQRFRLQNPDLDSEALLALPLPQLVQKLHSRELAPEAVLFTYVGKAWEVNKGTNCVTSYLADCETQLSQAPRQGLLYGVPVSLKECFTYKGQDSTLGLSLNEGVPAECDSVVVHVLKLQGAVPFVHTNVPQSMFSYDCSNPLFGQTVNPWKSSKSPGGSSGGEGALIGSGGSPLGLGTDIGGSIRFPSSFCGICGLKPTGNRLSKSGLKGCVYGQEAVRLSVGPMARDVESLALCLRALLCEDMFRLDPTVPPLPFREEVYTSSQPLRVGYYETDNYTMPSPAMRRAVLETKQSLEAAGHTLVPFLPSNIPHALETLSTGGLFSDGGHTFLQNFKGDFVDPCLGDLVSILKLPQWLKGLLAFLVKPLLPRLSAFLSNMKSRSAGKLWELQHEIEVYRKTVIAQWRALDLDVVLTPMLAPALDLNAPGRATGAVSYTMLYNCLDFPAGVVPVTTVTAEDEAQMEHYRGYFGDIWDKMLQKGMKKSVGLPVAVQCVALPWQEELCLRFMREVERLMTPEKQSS
Nature of the assay: FAAH activity, membranes of hFAAH overexpressing COS-7 cells, 3H-anandamide. Particulars: read-out: hFAAH Remaining activity % control (mean (range)), n=2. Here is the method: as §1

Assay [2] concerns the target T5, CB1R (Rattus norvegicus, UniProt P20272).
T5 construct: membranes prepared from brain tissue of 4-week-old male rodents were used; from tissue; host or cells: rat cerebellar membranes
In words: [35S]GTPγS binding, CB1R agonist activity, rat cerebellar membranes. Particulars: 10 µM. The method, then: (§2) The CB1 and CB2 receptor activity of the selected compounds (10 µM) were measured using the GTPγS binding assay according to the previously described methods, [33].
(§3) For ABPP experiments (Figure 6C) and cannabinoid receptor activity assays (Table S2), membranes prepared from brain tissue of 4-week-old male rodents were used. The animals were obtained from the National Laboratory Animal Centre, University of Eastern Finland. Approval for the harvesting of animal tissue was obtained from the local welfare officer of the University of Eastern Finland.
In general terms: GTPγS resists hydrolysis and so accumulates on activated G proteins.

In a further assay the target is T6, hCB2R (Homo sapiens, UniProt P34972).
T6 construct: expressed in transfected cells; host or cells: CHO
T6 sequence (P34972 whole entry): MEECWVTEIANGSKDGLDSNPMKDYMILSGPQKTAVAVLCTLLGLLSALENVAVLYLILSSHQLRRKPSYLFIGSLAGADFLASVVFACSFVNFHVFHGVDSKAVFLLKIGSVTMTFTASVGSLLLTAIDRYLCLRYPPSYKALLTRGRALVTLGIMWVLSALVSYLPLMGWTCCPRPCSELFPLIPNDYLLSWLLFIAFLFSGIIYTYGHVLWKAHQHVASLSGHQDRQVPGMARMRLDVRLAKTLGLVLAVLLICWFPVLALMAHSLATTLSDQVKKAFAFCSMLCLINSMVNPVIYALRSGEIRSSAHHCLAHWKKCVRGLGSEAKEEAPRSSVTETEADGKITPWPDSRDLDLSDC
In words: [35S]GTPγS binding, CB2R agonist activity, hCB2R-CHO cell membranes. Particulars: 10 µM.

Assay [3] concerns the target T5, CB1R. In words: [35S]GTPγS binding, CB1R antagonist activity, rat cerebellar membranes. Particulars: 10 µM. The method, then: as §2, §3
For assay [4], the target named is T1, hABHD12. In words: Reversibility testing, 40-fold dilution of enzyme-inhibitor complex. Particulars: time points 10, 20, 30, 60 and 90 min. The method, then:
Reversibility testing was carried out as previously described. Briefly, DMSO/inhibitor (0.5 µl) was incubated together with hABHD12-HEK293 lysate (4.5 µl, 0.3 µg protein/well) in TEMN-BSA buffer for 30 min. After this, a 40-fold dilution of enzyme-inhibitor complex was brought about by addition of the substrate [1-AG, 12.5 µM final concentration, containing additionally 1% EtOH (v/v)] in 195 µl of glycerol assay mix and fluorescence was kinetically monitored at 10 min intervals for 90 min at RT.

T5 sequence (P20272 whole entry): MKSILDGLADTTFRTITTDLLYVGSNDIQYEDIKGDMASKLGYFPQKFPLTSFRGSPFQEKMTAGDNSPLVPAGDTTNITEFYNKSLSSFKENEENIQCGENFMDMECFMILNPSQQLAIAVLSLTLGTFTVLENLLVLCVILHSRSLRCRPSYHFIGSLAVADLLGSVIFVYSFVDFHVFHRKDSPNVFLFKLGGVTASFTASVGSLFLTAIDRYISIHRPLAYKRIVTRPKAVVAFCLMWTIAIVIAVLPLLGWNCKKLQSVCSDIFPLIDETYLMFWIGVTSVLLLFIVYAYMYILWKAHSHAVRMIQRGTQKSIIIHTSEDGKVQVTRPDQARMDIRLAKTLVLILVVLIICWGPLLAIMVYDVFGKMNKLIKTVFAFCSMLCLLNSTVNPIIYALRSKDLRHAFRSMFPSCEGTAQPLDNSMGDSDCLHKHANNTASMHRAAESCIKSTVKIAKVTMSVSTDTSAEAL

For `CC1(C)CC[C@]2(C(=O)O)CC[C@]3(C)C(=CC[C@@H]4[C@@]5(C)C[C@@H](O)[C@H](O)C(C)(C)[C@@H]5CC[C@]43C)[C@@H]2C1` [Compound 8, Maslinic acid, reference compound], the IC50 on hABHD12 [1] (three independent experiments, read-out: -logIC50±s.e.m. (converted)) is 1.26 µM. For the same compound, on hABHD12 [1] (read-out: max inhibition (converted)), the Emax was 89%. In addition, the remaining activity at 10 µM at hABHD6 was over 100%; on hMAGL, 95.6 ± 0.8%; on hFAAH it was 83%. Moreover, on CB1R [2], the “CB1R agonist activity [35S]GTPγS binding % Basal (Mean (range), n=2)” value is on record as 93 (88-97) % Basal. Also, the “CB2R agonist activity [35S]GTPγS binding % Basal (Mean (range), n=2)” value at hCB2R is 114 (104-123) % Basal. Further, at CB1R [3], the “CB1R antagonist activity [35S]GTPγS binding % HU210-evoked response (Mean (range), n=2)” value was 99 (97-102) % HU210-evoked response. Also, on hABHD12 [4], the “time-dependency of inhibitor potency (IC50) after 40-fold dilution” value is listed as “time-dependent drop of inhibitor potency”.

One may read the remaining activity as the signal under treatment as a percentage of the control signal.
